The values that follow come from ChEMBL document CHEMBL1128467, “Novel, potent, and selective 5-HT3 receptor antagonists based on the arylpiperazine skeleton: synthesis, structure, biological activity, and comparative molecular field analysis studies” (J Med Chem, 1995).

The target of assay [1] is T1, 5-hydroxytryptamine receptor 1B (Rattus norvegicus, UniProt P28564). The format is tissue-based, Striatum.
Assay [2] addresses T2, 5-hydroxytryptamine receptor 2A (Rattus norvegicus, UniProt P14842).
In assay [3] the target is T3, Serotonin 3 (5-HT3) receptor (Rattus norvegicus, UniProt P35563+Q9JJ16).
T3 sequence (P35563 whole entry): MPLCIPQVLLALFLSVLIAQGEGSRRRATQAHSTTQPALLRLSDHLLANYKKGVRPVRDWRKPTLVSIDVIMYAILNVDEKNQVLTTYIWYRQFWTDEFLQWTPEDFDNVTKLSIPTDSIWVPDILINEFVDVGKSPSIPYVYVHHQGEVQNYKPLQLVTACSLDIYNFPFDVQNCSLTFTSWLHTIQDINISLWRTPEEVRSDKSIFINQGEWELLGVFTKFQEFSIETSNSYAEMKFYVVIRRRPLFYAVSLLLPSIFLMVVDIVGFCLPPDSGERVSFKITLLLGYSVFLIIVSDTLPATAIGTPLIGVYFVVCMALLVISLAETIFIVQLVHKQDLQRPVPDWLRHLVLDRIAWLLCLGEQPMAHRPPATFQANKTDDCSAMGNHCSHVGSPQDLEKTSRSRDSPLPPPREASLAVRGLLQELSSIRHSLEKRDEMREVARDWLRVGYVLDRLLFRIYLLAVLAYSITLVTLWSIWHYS
T3 sequence (Q9JJ16 whole entry): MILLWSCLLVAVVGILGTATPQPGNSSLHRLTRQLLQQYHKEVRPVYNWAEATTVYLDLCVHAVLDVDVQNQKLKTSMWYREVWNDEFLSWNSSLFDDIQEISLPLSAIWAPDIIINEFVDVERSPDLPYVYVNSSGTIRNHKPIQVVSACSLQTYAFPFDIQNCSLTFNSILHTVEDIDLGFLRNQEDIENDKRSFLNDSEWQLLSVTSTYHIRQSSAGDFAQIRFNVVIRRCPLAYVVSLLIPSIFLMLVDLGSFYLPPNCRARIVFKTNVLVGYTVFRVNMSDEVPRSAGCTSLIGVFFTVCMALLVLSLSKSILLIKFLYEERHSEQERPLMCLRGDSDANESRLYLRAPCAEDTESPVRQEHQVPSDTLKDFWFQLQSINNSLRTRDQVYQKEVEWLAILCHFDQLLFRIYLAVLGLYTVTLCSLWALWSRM
The assay is described as follows: Binding affinity for 5-hydroxytryptamine 3 receptor from rat cortex using [3H]BRL-43694 as radioligand.

The target of assay [4] is 5-hydroxytryptamine receptor 2C (Sus scrofa). Briefly: The compound was tested for their binding affinity towards 5-hydroxytryptamine 2C receptor.
The target in assay [5] is T4, 5-hydroxytryptamine receptor 1A (Rattus norvegicus, UniProt P19327).
T4 sequence (P19327 whole entry): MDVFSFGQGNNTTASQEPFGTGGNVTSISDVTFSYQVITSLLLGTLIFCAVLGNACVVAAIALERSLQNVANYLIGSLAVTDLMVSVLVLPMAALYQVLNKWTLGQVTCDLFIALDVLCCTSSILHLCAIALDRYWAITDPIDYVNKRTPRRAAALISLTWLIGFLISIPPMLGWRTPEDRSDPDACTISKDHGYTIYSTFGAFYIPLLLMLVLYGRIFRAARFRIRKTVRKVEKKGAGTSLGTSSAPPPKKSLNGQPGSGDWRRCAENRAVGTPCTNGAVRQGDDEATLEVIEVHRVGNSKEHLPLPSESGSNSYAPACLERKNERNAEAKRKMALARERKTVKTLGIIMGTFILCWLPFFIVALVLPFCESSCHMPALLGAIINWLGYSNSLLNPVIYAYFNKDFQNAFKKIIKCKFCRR
The format is tissue-based, Hippocampus.

Assay [6] has as its target T5, Sodium-dependent serotonin transporter (Rattus norvegicus, UniProt P31652).
For assay [7], the system named is 5-hydroxytryptamine receptor 2C (Sus scrofa).
For assay [8], the target named is T6, 5-hydroxytryptamine receptor 4 (Cavia porcellus, UniProt O70528). Briefly: The compound was tested for their binding affinity towards 5-hydroxytryptamine 4 receptor from guinea pig striatum using [3H]GR-113808 as radioligand. As to conditions: read-out: Ki; call rule not given here.
The target of assay [9] is T1, 5-hydroxytryptamine receptor 1B. Briefly: The compound was tested for their binding affinity towards 5-hydroxytryptamine 1B receptor from rat striatum using [3H]5-HT as radioligand.
Assay [10] deals with T6, 5-hydroxytryptamine receptor 4.
Assay [11] deals with T3, Serotonin 3 (5-HT3) receptor. The assay is described as follows: The compound was tested for its binding affinity towards 5-hydroxytryptamine 3 receptor from rat cortex using [3H]BRL-43694 as radioligand; NA means Not active.
In assay [12] the target is T1, 5-hydroxytryptamine receptor 1B. Briefly: The compound was tested for their binding affinity towards 5-hydroxytryptamine 1B receptor from rat striatum using [3H]5-HT as radioligand; Nonactive at 10 uM.
Assay [13] concerns the target T6, 5-hydroxytryptamine receptor 4. Briefly: Displacement of [3H]-GR113808 from 5-HT4 receptor of guinea pig striatum.
Assay [14] addresses T5, Sodium-dependent serotonin transporter. Briefly: Effect of compound on Serotonin transporter uptake from rat cortex using [3H]citalopram as radioligand.
Assay [15] has as its target T6, 5-hydroxytryptamine receptor 4. Briefly: The compound was tested for their binding affinity towards 5-hydroxytryptamine 4 receptor from guinea pig striatum using [3H]GR-113808 as radioligand; Nonactive at 10 uM.
For assay [16], the target named is T3, Serotonin 3 (5-HT3) receptor. Briefly: The compound was tested for their binding affinity towards 5-hydroxytryptamine 3 receptor; Nonactive at 10 uM. In kind it is protein-complex assay.
The target in assay [17] is T2, 5-hydroxytryptamine receptor 2A. The assay is described as follows: The compound was tested for its binding affinity towards 5-hydroxytryptamine 2A receptor from rat cortex using [3H]ketanserin as radioligand.; Nonactive at 10 uM.
For assay [18], the target named is T5, Sodium-dependent serotonin transporter. The assay is described as follows: Effect of compound on Serotonin transporter uptake from rat cortex using [3H]citalopram as radioligand; Nonactive at 10 uM.

T1 sequence (P28564 whole entry): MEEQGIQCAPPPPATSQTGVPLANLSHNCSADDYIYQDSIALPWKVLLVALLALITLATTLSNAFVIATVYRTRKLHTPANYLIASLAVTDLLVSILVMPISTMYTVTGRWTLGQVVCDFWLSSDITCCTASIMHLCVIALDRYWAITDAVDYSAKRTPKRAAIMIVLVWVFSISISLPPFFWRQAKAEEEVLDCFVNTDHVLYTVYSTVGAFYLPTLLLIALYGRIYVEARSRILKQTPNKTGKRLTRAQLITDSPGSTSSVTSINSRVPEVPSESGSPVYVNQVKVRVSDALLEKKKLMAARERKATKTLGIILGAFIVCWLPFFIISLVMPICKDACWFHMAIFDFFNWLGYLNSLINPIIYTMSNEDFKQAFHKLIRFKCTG
T5 sequence (P31652 whole entry): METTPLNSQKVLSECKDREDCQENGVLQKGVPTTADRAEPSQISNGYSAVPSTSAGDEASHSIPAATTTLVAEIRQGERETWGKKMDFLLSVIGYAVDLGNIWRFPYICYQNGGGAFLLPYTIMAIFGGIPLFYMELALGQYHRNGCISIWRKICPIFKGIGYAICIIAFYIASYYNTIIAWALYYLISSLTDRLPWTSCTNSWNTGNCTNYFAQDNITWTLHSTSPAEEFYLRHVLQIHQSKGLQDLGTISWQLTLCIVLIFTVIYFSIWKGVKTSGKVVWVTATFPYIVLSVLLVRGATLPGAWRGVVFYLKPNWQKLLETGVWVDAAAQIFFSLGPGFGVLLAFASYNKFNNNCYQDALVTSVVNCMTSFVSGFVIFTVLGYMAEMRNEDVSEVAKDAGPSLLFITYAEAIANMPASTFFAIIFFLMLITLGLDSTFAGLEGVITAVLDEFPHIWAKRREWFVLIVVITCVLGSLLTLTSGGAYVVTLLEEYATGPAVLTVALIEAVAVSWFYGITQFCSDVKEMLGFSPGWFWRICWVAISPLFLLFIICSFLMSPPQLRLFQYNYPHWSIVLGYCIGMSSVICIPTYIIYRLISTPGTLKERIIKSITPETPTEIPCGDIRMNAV
T2 sequence (P14842 whole entry): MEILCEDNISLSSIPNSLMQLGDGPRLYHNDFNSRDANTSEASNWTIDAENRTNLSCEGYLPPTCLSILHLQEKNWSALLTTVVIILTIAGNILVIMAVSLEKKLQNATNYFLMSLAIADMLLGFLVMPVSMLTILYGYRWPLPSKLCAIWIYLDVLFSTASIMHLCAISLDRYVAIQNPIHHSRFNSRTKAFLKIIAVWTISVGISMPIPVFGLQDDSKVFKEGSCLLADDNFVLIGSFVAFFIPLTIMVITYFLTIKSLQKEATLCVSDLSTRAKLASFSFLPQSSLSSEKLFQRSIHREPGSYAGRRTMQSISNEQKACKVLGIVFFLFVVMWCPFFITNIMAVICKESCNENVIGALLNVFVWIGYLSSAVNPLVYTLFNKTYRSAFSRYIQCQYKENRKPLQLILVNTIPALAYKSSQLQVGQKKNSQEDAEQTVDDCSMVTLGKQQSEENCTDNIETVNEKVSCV
T6 sequence (O70528 whole entry): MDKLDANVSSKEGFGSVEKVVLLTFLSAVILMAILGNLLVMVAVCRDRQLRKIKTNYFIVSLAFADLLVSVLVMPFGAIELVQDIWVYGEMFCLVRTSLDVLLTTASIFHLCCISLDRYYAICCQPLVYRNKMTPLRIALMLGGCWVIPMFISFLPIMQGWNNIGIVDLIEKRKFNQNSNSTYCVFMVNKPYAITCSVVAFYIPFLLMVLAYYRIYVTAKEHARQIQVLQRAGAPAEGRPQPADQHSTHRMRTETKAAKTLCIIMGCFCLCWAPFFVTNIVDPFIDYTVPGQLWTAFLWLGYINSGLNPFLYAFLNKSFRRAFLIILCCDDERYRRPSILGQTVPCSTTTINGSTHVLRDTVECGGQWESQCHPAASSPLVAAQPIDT

As to `COc1cc2c(N3CCN(C)CC3)nc3ccccc3c2c2ccccc12`, the Ki entry in assay [1] is “Not Active”; in [2] (read-out: Ki), 240 nM; in [3] it was 41.6 nM; in assay [4] it was 2300 nM.
Take `CCN1CCN(c2nc3ccccc3c3c2ccc2ccccc23)CC1`: the Ki entry was “Not Active” in assay [5]; “Not Active” in assay [1]; 640 nM in [2] (read-out: Ki); 16.4 nM in assay [3]; “Not Active” in [6]; “Not Active” in assay [7].
As for `CCN1CCN(c2nc3ccccc3c3c2cc(OC)c2ccccc23)CC1`, the Ki result is “Not Active” in [1], 690 nM in [2] (read-out: Ki), 220 nM in assay [3] and “Not Active” in assay [7].
As to `CN1CCN(c2nc3ccccc3c3c2oc2ccccc23)CC1`, the Ki result in assay [5] is “Not Active”; in assay [1], “Not Active”; in [2] (read-out: Ki) it was 450 nM; in assay [8], 6900 nM; in [3], 12.5 nM; in [6] it was “Not Active”. The Ki result in assay [7] is listed as “Not Active”.
For `COc1cc2c(N3CCNCC3)nc3ccccc3c2c2ccccc12`, the Ki result in assay [5] is “Not Active”; in assay [1] it was “Not Active”; in assay [2] (read-out: Ki), 1100 nM; in assay [3], 66.5 nM; in assay [6], “Not Active”; in assay [7], “Not Active”.
Regarding `CN(C)CCSc1nc2ccccc2c2c1CCOc1ccccc1-2`, the Ki entry in assay [5] is “Not Active”; in [9] it was 1300 nM; in assay [2] (read-out: Ki), 2800 nM; in [3] it was 45.9 nM; in [6], “Not Active”; in assay [7], “Not Active”.
In the case of `CN1CCN(c2nc3ccccc3c3c2COc2ccccc2-3)CC1`, the Ki result in assay [5] was “Not Active”; in assay [1], “Not Active”; in assay [2] (read-out: Ki), 1400 nM; in assay [10], “Not Active”; in [3] it was 1.6 nM; in assay [6], “Not Active”. The Ki result in assay [7] is reported as “Not Active”.
On to `COc1cc2c(SCCN(C)C)nc3ccccc3c2c2ccccc12`, for which the Ki result in assay [5], in assay [1], in assay [2], in [11], in assay [6] and in assay [7] was “Not Active” each time.
In the case of `CN1CCN(c2nc3ccccc3c3c2CCc2ccccc2-3)CC1`, the Ki result in assay [5] was “Not Active”; in assay [12], “Not Active”; in assay [2] (read-out: Ki), 400 nM; in [13] it was 6600 nM; in [3] it was 3.5 nM; in [6], “Not Active”. This compound also registered a Ki in assay [4] of 7200 nM.
Consider `c1ccc2c(c1)OCCc1c(N3CCNCC3)nc3ccccc3c1-2`, for which the Ki result is “Not Active” in assay [5], 420 nM in assay [9], 3200 nM in assay [2] (read-out: Ki) and 330 nM in assay [14].
Consider `c1ccc2c(c1)ccc1c(N3CCNCC3)nc3ccccc3c12`, for which the Ki entry in assay [5] was “Not Active”; in [1], “Not Active”; in assay [2] (read-out: Ki), 1100 nM; in assay [3] it was 130 nM; in [6] it was “Not Active”; in assay [7] it was “Not Active”.
Consider `CCN1CCN(c2nc3ccccc3c3c2COc2ccccc2-3)CC1`, for which the Ki result in [5] was “Not Active”; in assay [1], “Not Active”; in assay [2] (read-out: Ki) it was 1100 nM; in assay [3], 53.3 nM; in assay [6], “Not Active”; in assay [7], “Not Active”.
In the case of `CN1CCN(c2nc3ccccc3c3c2CCOc2ccccc2-3)CC1`, the Ki entry was “Not Active” in assay [5], “Not Active” in assay [1], 2400 nM in assay [2] (read-out: Ki) and “Not Active” in [15].
For the compound `c1ccc2c(c1)CCc1c(N3CCNCC3)nc3ccccc3c1-2`, the Ki result is “Not Active” in assay [5]; “Not Active” in [1]; 640 nM in assay [2] (read-out: Ki); 5.4 nM in assay [3]; 2600 nM in assay [14]; “Not Active” in assay [7].
As for `CN(C)CCSc1nc2ccccc2c2c1ccc1ccccc12`, the Ki entry is “Not Active” in [5]; “Not Active” in [1]; 2400 nM in assay [2] (read-out: Ki); “Not Active” in assay [16]; “Not Active” in assay [6]; “Not Active” in assay [7].
With `CN(C)CCSc1nc2ccccc2c2c1COc1ccccc1-2`, the Ki result was “Not Active” in assay [5]; “Not Active” in [1]; 1800 nM in [2] (read-out: Ki); “Not Active” in [16]; “Not Active” in assay [6]; “Not Active” in assay [7].
Take `CN(C)CCSc1nc2ccccc2c2c1CCc1ccccc1-2`: the Ki entry is “Not Active” in assay [5]; “Not Active” in [12]; 930 nM in [2] (read-out: Ki); “Not Active” in [16]; “Not Active” in assay [7].
For the compound `CN(C)CCSc1nc2ccccc2c2c1oc1ccccc12`, the Ki entry in assay [5] is “Not Active”; in [1] it was “Not Active”; in assay [17] it was “Not Active”; in assay [3] it was 410 nM; in assay [6] it was “Not Active”; in assay [7] it was “Not Active”.
`CCN1CCN(c2nc3ccccc3c3c2oc2ccccc23)CC1`: the Ki entry was “Not Active” in assay [5]; “Not Active” in assay [1]; 530 nM in [2] (read-out: Ki); 52.2 nM in assay [3]; “Not Active” in assay [18]; “Not Active” in [7].
For the compound `CCN1CCN(c2nc3ccccc3c3c2CCc2ccccc2-3)CC1`, the Ki entry in assay [5] is “Not Active”; in assay [1], “Not Active”; in assay [2] (read-out: Ki), 600 nM; in [3], 8 nM; in assay [6] it was “Not Active”; in [7] it was “Not Active”.
As to `c1ccc2c(c1)OCc1c(N3CCNCC3)nc3ccccc3c1-2`, the Ki result in [5] was “Not Active”; in assay [1], “Not Active”; in [2] (read-out: Ki), 2800 nM; in [3] it was 11.5 nM; in assay [14], 360 nM; in [7] it was “Not Active”.
Consider `c1ccc2c(CCC3CCNCC3)c[nH]c2c1` [INDALPINE], for which the affinity in [14] corresponds to a Ki of 2 nM.
In the case of `c1ccc2nc(N3CCNCC3)ccc2c1` [QUIPAZINE], the Ki in assay [9] was 208 nM; in [2] (read-out: Ki), 130 nM; in assay [10] it was “Not Active”; in [3], 1.2 nM; in assay [14], 43 nM.
